Measurements published in ChEMBL document CHEMBL5113400, “Design, synthesis, and biological evaluation of trizole-based heteroaromatic derivatives as Bcr-Abl kinase inhibitors” (Eur J Med Chem, 2022).
Activity calls are given as the source filed them. The calls are words filed in the database; no cut-off is given here.

How the values were obtained:
Bcr/Abl fusion protein [1] = target: Bcr/Abl fusion protein (Homo sapiens, UniProt P00519); assay: Inhibition of wild type Bcr-Abl (unknown origin) incubated for 1 hr in presence of ATP by ADP-Glo kinase assay; type: protein assay
Bcr/Abl fusion protein [2] = target: Bcr/Abl fusion protein (Homo sapiens, UniProt P00519, T315I); assay: Inhibition of Bcr-Abl T315I mutant (unknown origin) incubated for 1 hr in presence of ATP by ADP-Glo kinase assay; type: protein assay
HEK293 = assay: Cytotoxicity against human HEK293 cells assessed as inhibition of cell growth upto 100 uM incubated for 48 hrs by MTT assay; type: toxicity, cell-based; conditions: hek293, 48 h
[3] = target: Dual specificity tyrosine-phosphorylation-regulated kinase 1B (Homo sapiens) (UniProt Q9Y463); assay: Inhibition of recombinant human DYRK1B at 10 uM for 10 mins followed by substrate addition in presence of ATP and measured after 60 mins by HTRF assay; conditions: time 70.0 min
Chain of Dual specificity tyrosine-phosphorylation-regulated kinase 1B (Homo sapiens) (Q9Y463 whole entry, looked up): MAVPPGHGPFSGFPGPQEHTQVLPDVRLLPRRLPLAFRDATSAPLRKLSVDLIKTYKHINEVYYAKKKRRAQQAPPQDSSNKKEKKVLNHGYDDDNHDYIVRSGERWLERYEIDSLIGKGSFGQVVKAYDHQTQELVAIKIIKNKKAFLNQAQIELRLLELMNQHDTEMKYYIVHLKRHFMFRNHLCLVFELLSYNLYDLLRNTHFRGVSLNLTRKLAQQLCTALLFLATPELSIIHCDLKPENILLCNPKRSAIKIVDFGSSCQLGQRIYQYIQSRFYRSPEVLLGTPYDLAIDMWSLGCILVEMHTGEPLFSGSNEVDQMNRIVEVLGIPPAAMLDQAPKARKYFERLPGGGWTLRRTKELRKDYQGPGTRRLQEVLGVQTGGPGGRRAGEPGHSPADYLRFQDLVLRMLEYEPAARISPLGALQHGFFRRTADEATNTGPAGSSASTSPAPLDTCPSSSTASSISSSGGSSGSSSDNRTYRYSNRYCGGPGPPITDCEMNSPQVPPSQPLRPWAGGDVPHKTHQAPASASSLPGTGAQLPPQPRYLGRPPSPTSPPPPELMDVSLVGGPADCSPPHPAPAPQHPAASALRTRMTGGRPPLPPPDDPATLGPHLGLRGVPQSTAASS

[4] = target: Tyrosine-protein kinase receptor UFO (Homo sapiens) (UniProt P30530); assay: Inhibition of recombinant human AXL at 10 uM for 10 mins followed by substrate addition in presence of ATP and measured after 100 mins by ADP-Glo kinase assay; conditions: time 110.0 min
Chain of Tyrosine-protein kinase receptor UFO (Homo sapiens) (P30530 whole entry): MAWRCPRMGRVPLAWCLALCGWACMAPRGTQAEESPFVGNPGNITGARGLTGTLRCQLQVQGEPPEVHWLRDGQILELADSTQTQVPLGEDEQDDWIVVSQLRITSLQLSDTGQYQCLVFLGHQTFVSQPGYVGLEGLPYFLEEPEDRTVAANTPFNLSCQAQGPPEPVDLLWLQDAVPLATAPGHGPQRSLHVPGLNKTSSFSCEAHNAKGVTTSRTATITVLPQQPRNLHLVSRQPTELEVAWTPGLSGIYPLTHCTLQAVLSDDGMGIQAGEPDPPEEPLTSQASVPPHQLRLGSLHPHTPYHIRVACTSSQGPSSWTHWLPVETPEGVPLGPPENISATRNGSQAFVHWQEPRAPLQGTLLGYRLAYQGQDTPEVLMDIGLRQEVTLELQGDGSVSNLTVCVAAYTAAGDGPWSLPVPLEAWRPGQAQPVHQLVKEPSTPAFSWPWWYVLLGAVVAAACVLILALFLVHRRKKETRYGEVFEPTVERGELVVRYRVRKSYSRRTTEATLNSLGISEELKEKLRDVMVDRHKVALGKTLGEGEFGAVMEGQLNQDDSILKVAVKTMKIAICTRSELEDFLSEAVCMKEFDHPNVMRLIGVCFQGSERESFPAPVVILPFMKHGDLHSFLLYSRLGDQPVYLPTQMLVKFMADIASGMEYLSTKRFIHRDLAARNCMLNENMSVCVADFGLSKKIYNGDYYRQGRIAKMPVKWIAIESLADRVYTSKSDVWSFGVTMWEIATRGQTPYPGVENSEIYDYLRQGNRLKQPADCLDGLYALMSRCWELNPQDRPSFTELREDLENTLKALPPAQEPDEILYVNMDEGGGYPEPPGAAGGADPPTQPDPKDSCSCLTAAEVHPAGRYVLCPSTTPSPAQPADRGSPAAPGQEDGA

[5] = target: Vascular endothelial growth factor receptor 2 (Homo sapiens) (UniProt P35968); assay: Inhibition of recombinant human KDR at 10 uM for 10 mins followed by substrate addition in presence of ATP and measured after 100 mins by ADP-Glo kinase assay; conditions: time 110.0 min
Chain of Vascular endothelial growth factor receptor 2 (Homo sapiens) (P35968 whole entry): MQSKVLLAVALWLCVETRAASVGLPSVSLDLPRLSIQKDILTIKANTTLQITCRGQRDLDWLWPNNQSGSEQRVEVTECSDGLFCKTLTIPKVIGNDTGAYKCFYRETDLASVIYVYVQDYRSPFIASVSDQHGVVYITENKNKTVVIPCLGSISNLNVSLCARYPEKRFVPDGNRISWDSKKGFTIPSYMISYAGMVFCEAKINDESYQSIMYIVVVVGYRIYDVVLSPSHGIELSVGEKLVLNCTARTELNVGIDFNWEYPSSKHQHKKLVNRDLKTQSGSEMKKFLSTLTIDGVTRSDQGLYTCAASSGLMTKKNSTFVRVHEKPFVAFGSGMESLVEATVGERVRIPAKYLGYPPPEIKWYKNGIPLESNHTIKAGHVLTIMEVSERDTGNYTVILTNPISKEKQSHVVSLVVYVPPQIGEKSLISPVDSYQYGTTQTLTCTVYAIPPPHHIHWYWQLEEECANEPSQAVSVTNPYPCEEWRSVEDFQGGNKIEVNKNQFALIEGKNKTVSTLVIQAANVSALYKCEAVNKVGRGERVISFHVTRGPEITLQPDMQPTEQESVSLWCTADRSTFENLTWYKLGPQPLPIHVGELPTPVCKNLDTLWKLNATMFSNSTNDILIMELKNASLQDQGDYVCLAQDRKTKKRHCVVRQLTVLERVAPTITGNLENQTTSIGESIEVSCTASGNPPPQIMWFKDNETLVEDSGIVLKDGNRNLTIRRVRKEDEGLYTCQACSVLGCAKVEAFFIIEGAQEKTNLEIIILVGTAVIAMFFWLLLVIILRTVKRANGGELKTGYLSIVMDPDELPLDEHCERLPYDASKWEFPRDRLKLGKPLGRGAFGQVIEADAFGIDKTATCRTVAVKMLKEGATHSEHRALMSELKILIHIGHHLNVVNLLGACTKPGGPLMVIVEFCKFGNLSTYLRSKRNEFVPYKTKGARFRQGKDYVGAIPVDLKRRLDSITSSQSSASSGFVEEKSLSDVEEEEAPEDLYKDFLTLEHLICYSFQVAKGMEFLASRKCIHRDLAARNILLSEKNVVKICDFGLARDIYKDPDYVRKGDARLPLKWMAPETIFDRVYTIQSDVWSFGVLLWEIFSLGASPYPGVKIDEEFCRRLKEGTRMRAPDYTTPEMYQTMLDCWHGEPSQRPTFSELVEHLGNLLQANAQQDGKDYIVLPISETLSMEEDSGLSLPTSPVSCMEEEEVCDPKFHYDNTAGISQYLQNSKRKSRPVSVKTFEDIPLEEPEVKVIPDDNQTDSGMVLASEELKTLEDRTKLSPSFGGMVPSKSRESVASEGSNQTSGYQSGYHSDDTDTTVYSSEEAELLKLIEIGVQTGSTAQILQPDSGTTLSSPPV

[6] = target: Dual specificity protein kinase CLK1 (Homo sapiens) (UniProt P49759); assay: Inhibition of recombinant human CLK1 at 10 uM for 10 mins followed by substrate addition in presence of ATP and measured after 100 mins by ADP-Glo kinase assay; conditions: time 110.0 min
Chain of Dual specificity protein kinase CLK1 (Homo sapiens) (P49759 whole entry, looked up): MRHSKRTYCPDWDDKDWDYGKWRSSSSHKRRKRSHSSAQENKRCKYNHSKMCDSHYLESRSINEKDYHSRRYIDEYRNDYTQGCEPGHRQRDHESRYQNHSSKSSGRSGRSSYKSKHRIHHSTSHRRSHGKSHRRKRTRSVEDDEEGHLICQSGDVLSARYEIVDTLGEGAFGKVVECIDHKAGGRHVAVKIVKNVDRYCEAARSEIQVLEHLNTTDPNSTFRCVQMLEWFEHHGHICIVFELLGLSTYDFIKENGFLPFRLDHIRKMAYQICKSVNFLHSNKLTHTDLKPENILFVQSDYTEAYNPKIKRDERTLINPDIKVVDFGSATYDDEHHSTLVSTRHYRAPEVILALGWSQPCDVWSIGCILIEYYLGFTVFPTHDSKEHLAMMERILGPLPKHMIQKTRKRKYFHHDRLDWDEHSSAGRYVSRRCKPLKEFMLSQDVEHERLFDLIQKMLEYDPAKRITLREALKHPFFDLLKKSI

[7] = target: T1, Tyrosine-protein kinase ITK/TSK (Homo sapiens) (UniProt Q08881); assay: Inhibition of recombinant human ITK at 10 uM for 10 mins followed by substrate addition in presence of ATP and measured after 60 mins by HTRF assay; conditions: time 70.0 min
T1 sequence (whole entry): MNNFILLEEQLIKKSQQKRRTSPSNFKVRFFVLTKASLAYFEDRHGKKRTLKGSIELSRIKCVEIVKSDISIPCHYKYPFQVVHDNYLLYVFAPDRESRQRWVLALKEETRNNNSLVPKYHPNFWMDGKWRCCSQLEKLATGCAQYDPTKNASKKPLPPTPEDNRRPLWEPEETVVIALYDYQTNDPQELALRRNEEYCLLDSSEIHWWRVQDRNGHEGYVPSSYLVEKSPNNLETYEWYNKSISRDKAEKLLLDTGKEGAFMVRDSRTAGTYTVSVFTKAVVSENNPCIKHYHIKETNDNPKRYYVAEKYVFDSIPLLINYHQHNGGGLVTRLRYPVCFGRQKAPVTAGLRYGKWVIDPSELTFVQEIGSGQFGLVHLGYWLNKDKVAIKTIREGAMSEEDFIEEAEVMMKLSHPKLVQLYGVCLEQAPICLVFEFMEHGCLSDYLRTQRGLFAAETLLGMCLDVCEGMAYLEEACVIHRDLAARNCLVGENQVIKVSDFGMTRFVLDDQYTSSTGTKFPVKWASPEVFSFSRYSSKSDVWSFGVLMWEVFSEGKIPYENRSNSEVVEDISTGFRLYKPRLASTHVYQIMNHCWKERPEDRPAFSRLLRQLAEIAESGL

[8] = target: T1, Tyrosine-protein kinase ITK/TSK (Homo sapiens); assay: Inhibition of recombinant human ITK at 10 uM for 10 mins followed by substrate addition in presence of ATP and measured after 100 mins by ADP-Glo kinase assay; conditions: time 110.0 min
K562 [9] = assay: Induction of apoptosis in human K562 cells assessed as necrotic cells at 10 uM incubated for 48 hrs by Annexin V-FITC/PI staining based flow cytometry analysis (Rvb= 0.09%); type: functional
K562 [10] = assay: Induction of apoptosis in human K562 cells assessed as early apoptotic cells at 10 uM incubated for 48 hrs by Annexin V-FITC/PI staining based flow cytometry analysis (Rvb= 4.35%); type: functional
K562 [11] = assay: Induction of apoptosis in human K562 cells assessed as late apoptotic cells at 1 uM incubated for 48 hrs by Annexin V-FITC/PI staining based flow cytometry analysis (Rvb= 14.66%); type: functional
K562 [12] = assay: Induction of apoptosis in human K562 cells assessed as late apoptotic cells at 5 uM incubated for 48 hrs by Annexin V-FITC/PI staining based flow cytometry analysis (Rvb= 14.66%); type: functional
K562 [13] = assay: Induction of apoptosis in human K562 cells assessed as viable cells at 1 uM incubated for 48 hrs by Annexin V-FITC/PI staining based flow cytometry analysis (Rvb=80.89%); type: functional; conditions: read-out: Activity
K562 [14] = assay: Induction of apoptosis in human K562 cells assessed as viable cells at 5 uM incubated for 48 hrs by Annexin V-FITC/PI staining based flow cytometry analysis (Rvb=80.89%); type: functional; conditions: read-out: Activity
K562 [15] = assay: Induction of cell cycle arrest in human K562 cells assessed as reduction in G0/G1 phase at 1 to 10 uM incubated for 48 hrs by PI staining based flow cytometry; type: functional; conditions: dose 1-10 µM
[16] = target: T2, Signal transducer and activator of transcription 5A (Homo sapiens) (UniProt P42229); assay: Inhibition of STAT5 phosphorylation at Tyr694 residue in human K562 cells expressing wild type Bcr-Abl at 0.1 to 15 uM measured after 48 hrs by Western blot analysis; type: cell-based; conditions: dose 0.1-15 µM, DDE = dose-dependent effect
T2 sequence (whole entry): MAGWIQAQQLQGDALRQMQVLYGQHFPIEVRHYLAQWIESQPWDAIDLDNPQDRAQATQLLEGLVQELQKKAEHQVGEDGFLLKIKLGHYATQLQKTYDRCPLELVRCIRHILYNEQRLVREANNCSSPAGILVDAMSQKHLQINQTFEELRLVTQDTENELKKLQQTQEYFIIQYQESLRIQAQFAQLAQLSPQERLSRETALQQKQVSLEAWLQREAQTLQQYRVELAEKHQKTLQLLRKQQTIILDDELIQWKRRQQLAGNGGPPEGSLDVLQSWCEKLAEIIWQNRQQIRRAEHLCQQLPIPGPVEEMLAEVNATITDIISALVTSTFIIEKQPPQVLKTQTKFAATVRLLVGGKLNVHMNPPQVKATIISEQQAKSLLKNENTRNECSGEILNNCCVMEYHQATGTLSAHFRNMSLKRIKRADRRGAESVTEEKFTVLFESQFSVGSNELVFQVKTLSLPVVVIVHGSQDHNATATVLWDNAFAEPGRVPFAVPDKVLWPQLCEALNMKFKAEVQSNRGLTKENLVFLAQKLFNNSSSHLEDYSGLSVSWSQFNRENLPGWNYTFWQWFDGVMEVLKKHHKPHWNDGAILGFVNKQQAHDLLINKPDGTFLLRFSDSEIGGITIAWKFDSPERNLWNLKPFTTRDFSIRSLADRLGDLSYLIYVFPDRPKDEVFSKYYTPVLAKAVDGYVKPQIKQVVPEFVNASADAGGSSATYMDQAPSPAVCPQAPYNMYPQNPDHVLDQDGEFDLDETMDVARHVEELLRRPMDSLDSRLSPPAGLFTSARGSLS

O=C(Nc1nc2ccc(-c3cn([C@@H]4CN[C@H](C(=O)Nc5ccc(Cl)cc5Cl)C4)nn3)nc2s1)C1CC1
IC50 (Bcr/Abl fusion protein [1]): 0.6 nM | IC50 (Bcr/Abl fusion protein [2]): 190 nM | Activity (HEK293): Non-Toxic | inhibition [3]: 68.4% | inhibition [4]: 56.4% | inhibition [5]: 47.7% | inhibition [6]: 44.2% | inhibition [7]: 41.1% | inhibition [8]: 41.1% | Activity (K562 [9]): 0.01% | Activity (K562 [10]): 7.16% | Activity (K562 [11]): 19.42% | Activity (K562 [12]): 29.63% | viability at 1 µM (K562 [13]): 76.9% | viability at 5 µM (K562 [14]): 66.5% | Activity (K562 [15]): Active | inhibition [16]: Dde
